Assays:
HCT116 cells = test: Resazurin assay, HCT116 2D monolayer; format: cell-based, human; settings: 96 h
Method: (§1) CH1/PA-1 (ovarian teratocarcinoma), SW480 (colon carcinoma) and A549 (non-small cell lung cancer) cells were maintained as described in the reference. IMR-90 human fetal lung fibroblasts (from the European Collection of Authenticated Cell Cultures, Porton Down, Salisbury, UK) were cultured in Stable Cell^TM DMEM/F12 supplemented with 0.01 mg/mL human recombinant insulin (both purchased from Sigma-Aldrich) and 10% fetal bovine serum (FBS, BioWest, Nuaillé, France). Human colon carcinoma cell lines HCT116 and HT29 (both kindly provided by the Institute of Cancer Research, Department of Medicine I, Medical University of Vienna, Austria) were cultured in McCoy’s 5a medium supplemented with 4 mM L-glutamine (both purchased from Sigma-Aldrich) and 10% FBS. MCF-7 human breast adenocarcinoma cells (kindly provided by M. Ogris, Department of Pharmaceutical Sciences, University of Vienna, Austria) were maintained in DMEM (high glucose) supplemented with 4 mM L-glutamine, 0.1 mg/mL human insulin (all purchased from Sigma-Aldrich) and 10% FBS. All cell lines were grown as monolayers in 75 cm^2 culture flasks (CytoOne, Starlab, Hamburg, Germany) at 37 °C in a humidified atmosphere containing 5% CO2.
(§2) For the resazurin assay in monolayer cultures, cells were seeded into 96-well microculture plates (CytoOne, tissue culture treated, Starlab, Hamburg, Germany) in densities of 2 × 10^3 HCT116, 2 × 10^3 HT29 and 4 × 10^3 MCF-7 cells per well (each in 100 µL). For tests in 3D cultures, spheroids were grown as described above. After 24 h (for monolayers) or 4 days (for spheroids) the test compounds in the appropriate medium were added in serial dilution to the plates to obtain a total volume of 200 µL/well. Wells without cells, containing medium and resazurin (Alfa Aesar, Thermo Fisher, Kandel, Germany) solution were used as blanks. After 96 h exposure 20 µL of the resazurin solution (440 µM) were added to each well, followed by a 4 h (2D) or 12 h (3D) incubation period. Resorufin fluorescence was quantified at 530 nm (and a reference wavelength of 620 nm) by using a microplate reader (Synergy HT, BioTek) with Gen5^TM 3.10 software (BioTek).

[1] = Solubility in PBS (1% DMSO); format: physicochemical
Method: Stock solutions in DMSO of compounds 1–10 were utilized to determine the solubility in PBS by adding 1 vol% of the stock solution to a suitable amount of PBS. […] UV/Vis data were recorded on a Perkin Elmer Lambda 650 UV/Vis Spectrophotometer with a Peltier element for temperature control.

MCF-7 cells = test: Resazurin assay, MCF-7 2D monolayer; format: cell-based, human; settings: 96 h
Method: as §1, §2

[2] = Cyclic voltammetry in MeCN (W(IV) to W(V)); format: physicochemical; settings: vs. NHE, scan rate 200 mV/s
Method: NMR spectra were recorded with a Bruker FT-NMR Avance III^TM 500 MHz spectrometer at 500.10 (^1H), and 125.75 MHz (^13C) using DMSO–d6. 2D-NMR measurements were recorded utilizing standard pulse programs COSY, HSQC and HMBC. The Microanalytical Laboratory of the University of Vienna performed the elemental analyses with a Eurovector EA 3000(2009) equipped with a high temperature pyrolysis furnace (HT, Hekatech, Germany, 2009). Elemental analyses’ samples were weighed (weights from 1–3 mg were used) on a Sartorius SEC 2 ultra-micro balance with ±0.1 µg resolution. Two NIST-certified reference materials were used for calibration: sulfanilamide (C6H8N2O2S) and BBOT (2,5-bis-(5-tert-butyl-2-benzoxazol-2-yl)-thiophenone, C26H26N2O2S). The limit of quantification (LOQ) was 0.05 w% for C, H, N and 0.02 w% for S. For samples without N and/or S, the content of these elements was determined and verified to be below the LOQ. X-ray diffraction analyses were carried out on a Bruker X8 APEX II CCD diffractometer at 100 K. ESI-MS were recorded on a Bruker AmaZon SL ion trap mass spectrometer (Bruker Daltonics GmbH). Data were obtained and processed with Compass 1.3 and Data Analysis 4.0 (Bruker Daltonics GmbH). Infrared spectra were attained on a Bruker Vertex 70 FT-IR-spectrometer with an ATR-unit (attenuated total reflection unit) in the range of 4000–600 cm^−1. Intensities of the reported bands are described with w for weak, m for medium and s for strong; broad signals are additionally specified with the letter b in front of these abbreviations. Cyclic voltammograms (CVs) were measured in a three-electrode cell using 2 mm diameter glassy carbon disk working electrode, a platinum auxiliary electrode and an Ag|Ag^+ reference electrode containing 0.1 M AgNO3. Measurements were carried out at room temperature using an EG&G PARC potentiostat/galvanostat 273A. The solutions were deoxygenized by purging a stream of argon for 3 min through the solution and the experiment was performed under an argon atmosphere. The potentials were measured in a freshly prepared solution of (n Bu4N)[BF4] (0.1 M) in acetonitrile using ferrocene (Fe(η^5-C5H5)2) (E1/2 = +0.72 V vs. NHE) as an internal standard and are quoted relative to the normal hydrogen electrode (NHE).
The electrochemical behavior of all complexes and the precursor Cp2WCl2 was studied by cyclic voltammetry with a scan rate of 200 mV/s, from −0.5 to +1.2 or +1.5 V. Measurements were performed in triplicate. Due to low water solubility of compounds 1–10 acetonitrile (MeCN) was utilized in order to reach the 2 mM concentration.

[3] = tested on: SW480 (colon carcinoma) cells; test: MTT cytotoxicity assay, SW480 monolayer; format: cell-based, human; settings: exposure time 96 h, mean ± SD
Method: as §1
Exponentially growing cells were plated into 96-well microculture plates (CytoOne, tissue culture treated, Starlab, Hamburg, Germany) in densities of 1 × 10^3 CH1/PA-1, 2 × 10^3 SW480, 3 × 10^3 A549 and 7 × 10^3 IMR-90 cells per well (each in 100 µL). After a 24 h preincubation, drugs were added in serial dilution to give a final volume of 200 µL/well and exposed for 96 h. At the end of the exposure, the drug solutions were replaced by 100 µL RPMI 1640/MTT mixture (7:1 ratio). MTT (3-(4,5-dimethylthiazol-2-yl)-2,5-diphenyl-2H-tetrazolium bromide), (Acros Organics, Geel, Belgium) solution was prepared in phosphate-buffered saline (5 mg/mL) and mixed with RPMI1640 medium supplemented with 4 mM L-glutamine (both from Sigma-Aldrich) and 10% FBS. After 4 h incubation, the formazan crystals were solubilized in 150 µL of DMSO per well. Absorbance was measured at 550 nm (and at 690 nm as a reference) with a microplate reader (ELx808, BioTek, Winoosky, VT, USA) and Gen5^TM 3.08 software (BioTek). The 50% inhibitory concentrations (IC50) relative to untreated controls were interpolated from concentration-effect curves. At least three biologically and technically independent experiments were performed.

HT29 cells = test: Resazurin assay, HT29 2D monolayer; format: cell-based, human; settings: 96 h
Method: as §1, §2

SMILES | IC50 (HCT116 cells) | Solubility in PBS (1% DMSO) [1] | IC50 (MCF-7 cells) | E1/2 [2] | IC50 [3] | IC50 (HT29 cells)
Cc1occc(=S)c1[O-].F[P-](F)(F)(F)(F)F.[W+4].c1cc[cH-]c1.c1cc[cH-]c1 [Compound 2, Bis(η^5-cyclopentadienyl)[2-methyl-3-(oxo-κO)-4-(1H)-pyran-4-thionato-κS]tungsten(IV) hexafluorophosphate] | 98 ± 12 µM | 250 µg/mL | 66 ± 12 µM | 1.047 V | 36 ± 7 µM | 53 ± 9 µM
F[P-](F)(F)(F)(F)F.O=c1c([O-])c(-c2ccc(Cl)cc2)oc2ccccc12.[W+4].c1cc[cH-]c1.c1cc[cH-]c1 [Compound 3, Bis(η^5-cyclopentadienyl)[2-(4-chlorophenyl)-3-(oxo-κO)-4(H)-chromen-4-oato-κO]tungsten(IV) hexafluorophosphate] | 9.2 ± 1.4 µM | 30 µg/mL | 6.5 ± 1.8 µM | 1.059 V | 5.4 ± 1.1 µM | 17 ± 4 µM
F[P-](F)(F)(F)(F)F.[O-]c1c(-c2ccc(Cl)cc2)oc2ccccc2c1=S.[W+4].c1cc[cH-]c1.c1cc[cH-]c1 [Compound 4, Bis(η^5-cyclopentadienyl)[2-(4-chlorophenyl)-3-(oxo-κO)-4(H)-chromen-4-thionato-κS]tungsten(IV) hexafluorophosphate] | 6 ± 0.9 µM | 10 µg/mL | 2.7 ± 0.7 µM | 1.082 V | 2.4 ± 0.5 µM | 5.5 ± 1 µM
F[P-](F)(F)(F)(F)F.O=C([O-])c1ccccn1.[W+4].c1cc[cH-]c1.c1cc[cH-]c1 [Compound 5, Bis(η^5-cyclopentadienyl)[2-(carboxylato-κO)-pyridine-κN]tungsten(IV) hexafluorophosphate] | > 200 µM | 180 µg/mL | > 200 µM | 1.330 V | 147 ± 21 µM | > 200 µM
Cc1c([O-])c(=O)ccn1C.F[P-](F)(F)(F)(F)F.[W+4].c1cc[cH-]c1.c1cc[cH-]c1 [Compound 6, Bis(η^5-cyclopentadienyl)[1,2-dimethyl-3-(oxo-κO)-4-(1H)-pyridonato-κO]tungsten(IV) hexafluorophosphate] | > 200 µM | 1200 µg/mL | 172 ± 45 µM | 0.885 V | 154 ± 29 µM | > 200 µM
Cc1cc(=O)c([O-])co1.F[P-](F)(F)(F)(F)F.[W+4].c1cc[cH-]c1.c1cc[cH-]c1 [Compound 7, Bis(η^5-cyclopentadienyl)[2-methyl-5-(oxo-κO)-4-(1H)-pyran-4-ato-κO] tungsten(IV) hexafluorophosphate] | > 200 µM | 350 µg/mL | > 200 µM | 1.071 V | > 200 µM | > 200 µM
Cc1cc(=S)c([O-])co1.F[P-](F)(F)(F)(F)F.[W+4].c1cc[cH-]c1.c1cc[cH-]c1 [Compound 8, Bis(η^5-cyclopentadienyl)[2-methyl-5-(oxo-κO)-pyran-4-(1H)-thionato-κS] tungsten(IV) hexafluorophosphate] | > 200 µM | 410 µg/mL | 163 ± 32 µM | 1.080 V | 129 ± 14 µM | > 200 µM
CCc1occc(=O)c1[O-].F[P-](F)(F)(F)(F)F.[W+4].c1cc[cH-]c1.c1cc[cH-]c1 [Compound 9, Bis(η^5-cyclopentadienyl)[2-ethyl-3-(oxo-κO)-4-(1H)-pyran-4-ato-κO] tungsten(IV) hexafluorophosphate] | > 200 µM | 550 µg/mL | 147 ± 15 µM | 1.038 V | 101 ± 15 µM | > 200 µM
CCc1occc(=S)c1[O-].F[P-](F)(F)(F)(F)F.[W+4].c1cc[cH-]c1.c1cc[cH-]c1 [Compound 10, Bis(η^5-cyclopentadienyl)[2-ethyl-3-(oxo-κO)-4-(1H)-pyran-4-thionato-κS] tungsten(IV) hexafluorophosphate] | 42 ± 3 µM | 320 µg/mL | 29 ± 4 µM | 1.064 V | 13 ± 1 µM | 54 ± 2 µM
